The source of these data is patent US9572890B2, “Oral formulations of mitochondrially-targeted antioxidants and their preparation and use” (MITOTECH SA, priority 2011, dated 2017).

The subject of the assay is ICAM-1 mRNA. Kind of assay: ICAM-1 mRNA level in aortas of old mice. Format: in vivo. The settings on record: 24 months old C57Black/CBA mice; SkQ1 in drinking water for 7 months. Here is the method: As described above in Example 7A, above, the expression of ICAM-1 is elevated under many pathological vascular conditions. SkQ1 efficacy in reducing ICAM-1 expression in vivo was tested on mice. 30 hybrid male C57Black/CBA mice were divided into 3 experimental groups (10 animals in each group) at the beginning of the experiment. The group “Young mice” included mice at the age of 6 months. Groups “Old mice” and “Old mice, SkQ1” included mice at the age of 24 months. The group “Old mice, SkQ1” had free access to drinking water with 100 nM water-dissolved SkQ1 per 1 kg of body weight for 7 months. After this period, the animals were decapitated. Aortas were excised, and total RNA was isolated using […] Blood and Tissue kit (QIAGEN), reverse-transcribed into cDNA, and used for quantitative real-time PCR analysis of ICAM-1 mRNA level. For the normalization procedure the average geometry of expression levels of housekeeping genes GAPDH and RPL32 was used Data are shown as means±S.E.M.

As to `CC1=C(C)C(=O)C(CCCCCCCCCC[P+](c2ccccc2)(c2ccccc2)c2ccccc2)=CC1=O` [SkQ1], the “ICAM-1 mRNA levels in aorta of treated old mice compared to the control group” value is “significantly lowered”.
